Laboratory results published in patent US20040171687A1 (priority 2002, published 2004).

Tested on: human skin
Experiment: Human skin contact with acidic solution
Details: solution with a pH of less than 0.5

SMILES: O=S(=O)(O)O [sulfuric acid]
- irritation or injury of the hand put into the solution: an irritation would occur within a relatively short span of time
